# Measurements published in patent US4575560A, “Insecticidal diaminoguanidine hydrazone compounds” (American Cyanamid Company, priority 1985, dated 1986).
# Where a name gives a salt, the structure may show the parent alone.
# Columns and labels:
# [1] = system: Southern Armyworm; assay: Southern armyworm test, third-instar larvae on treated Sieva lima bean leaves; assay type: in vivo, Spodoptera eridania (Cramer); conditions: for Mortality Rating Southern Armyworm: third-instar larvae; for LC50: Spodoptera eridania, read-out: LC50 Southern Armyworm
# Method in brief: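 Sieva lima bean plants, primary leaves expanded to 1.91 cm, were dipped with agitation for three seconds in test material dissolved in 65% acetone, with further dilutions in acetone, then air-dried in a hood. A treated leaf was placed in a 9 cm petri dish on moist filter paper with 10 third-instar Spodoptera eridania larvae about 1 cm long. Dishes were covered and kept at 80° F. and 50% r.h. Mortality and feeding were assessed after two days.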
# [2] = system: Tobacco Budworm 1st Instar; assay: Tobacco budworm initial test, treated eggs / newly hatched (1st instar) larvae on treated cotton leaves; assay type: in vivo, Heliothis virescens (Fabricus)
# Protocol: Test formulations and procedures used for evaluation are as follows:
# A. 100 mg of the test material is weighed, placed in a funnel over a 113 g narrow-mouth bottle, rinsed into the bottle with a 35 mL scoop of acetone, followed by a 35 mL scoop of water and another 35 mL scoop of acetone to yield 1000 ppm in 65% acetone. If the material is not soluble, it is broken up with a glass rod and used as a suspension.
# B. This stock solution ("A") is used to make 300 ppm solutions or suspensions by pipetting 30 mL of "A" into a bottle containing 70 mL of 50% acetone to yield 300 ppm. Further dilutions in 50% acetone are made as required.
# C. Tests requiring 10 ppm acetone solutions: 1 mL of "A" is pipetted into 99 mL of acetone to yield 10 ppm. Additional dilutions are made using 50% acetone as required.
# Tobacco Budworm--Heliothis virescens (Fabricus)
# A cotton plant with two true leaves expanded is dipped for three seconds with agitation in 300 ppm solution. A 1.27 to 1.91 cm square of cheesecloth with about 50 to 100 budworm eggs 0-24 hours old is also dipped in the test solution and placed on a leaf of the cotton plant, all being placed in the hood to dry. The leaf with the treated budworm eggs is removed from the plant and placed in a 226 g Dixie cup with a wet 5 cm piece of dental wick and covered with a lid. The other leaf is placed in a similar cup with a wick and a piece of cheesecloth infested with 50-100 newly hatched larvae is added before covering the cup with a lid. After three days at 80° F., 50% relative humidity, observations of egg hatch are made, as well as kill of newly hatched larvae, any inhibition of feeding, or interference of any sort with normal development.
# [3] = system: Tobacco Budworm 3rd Instar; assay: Tobacco budworm secondary test, third-instar larvae on treated cotton cotyledons; assay type: in vivo, Heliothis virescens (Fabricus)
Compound,Mortality Rating Southern Armyworm ([1]; 10 ppm),Mortality Rating Southern Armyworm ([1]; 100 ppm),Mortality Rating Southern Armyworm ([1]; 1000 ppm),Mortality Rating Tobacco Budworm 1st Instar ([2]; 300 ppm),Mortality Rating Tobacco Budworm 3rd Instar ([3]; 100 ppm),Mortality Rating Tobacco Budworm 3rd Instar ([3]; 1000 ppm),Mortality Rating Tobacco Budworm 1st Instar ([2]; 100 ppm),Mortality Rating Tobacco Budworm 1st Instar ([2]; 10 ppm),reduced feeding (R) Tobacco Budworm 1st Instar ([2]; 100 ppm),Mortality Rating Tobacco Budworm 3rd Instar ([3]; 10 ppm),reduced feeding (R) Tobacco Budworm 3rd Instar ([3]; 100 ppm),reduced feeding (R) Tobacco Budworm 3rd Instar ([3]; 1000 ppm),LC50 [1] [µg/mL],"LC50 Southern Armyworm ([1]; southern armyworm, in vivo) [ppm]",reduced feeding (R) Southern Armyworm ([1]; 100 ppm)
CN(C)C(=O)N(N=Cc1ccc(Br)cc1)C(=N)NN=Cc1ccc(Br)cc1 [Br / Br / CH3 / CH3],0 (No effect),9 (100%),9 (100%),0 (No effect),0 (No effect),2 (26-35%),–,–,–,–,–,–,–,–,–
N=C(NN=Cc1ccc(Br)cc1)NN=Cc1ccc(Br)cc1 [Br / HNO3],–,5 (56-65%),9 (100%),0 (No effect),–,–,–,–,–,–,–,–,–,–,–
"N=C(NN=Cc1ccc(C(F)(F)F)cc1)NN=Cc1ccc(C(F)(F)F)cc1 [CF3 / B, 1,3-bis{[p-(trifluoromethyl)benzylidene]amino}guanidine]",0 (No effect),9 (100%),9 (100%),6 (66-75%),0 (No effect),8 (86-99%),0 (No effect),–,–,–,–,–,–,–,–
N=C(NN=Cc1ccc(Br)cc1)NN=Cc1ccc(C(F)(F)F)cc1 [CF3 / Br / HCl],–,–,9 (100%),9 (100%),0 (No effect),0 (No effect),0 (No effect),0 (No effect),R,0 (No effect),R,R,–,–,–
CC(C)OC(=O)N(N=Cc1ccc(C(F)(F)F)cc1)C(=N)NN=Cc1ccc(C(F)(F)F)cc1 [CF3 / CF3 / -i-C3 H7],9 (100%),9 (100%),9 (100%),0 (No effect),0 (No effect),3 (36-45%),–,–,–,–,R,R,–,–,–
CC(C)COC(=O)N(N=Cc1ccc(C(F)(F)F)cc1)C(=N)NN=Cc1ccc(C(F)(F)F)cc1 [CF3 / CF3 / -i-C4 H9],–,0 (No effect),9 (100%),0 (No effect),–,0 (No effect),–,–,–,–,–,–,–,–,–
CCN(CC)C(=O)N(N=Cc1ccc(C(F)(F)F)cc1)C(=N)NN=Cc1ccc(C(F)(F)F)cc1 [CF3 / CF3 / C2 H5 / C2 H5],7 (76-85%),9 (100%),9 (100%),0 (No effect),–,4 (46-55%),–,–,–,–,–,–,8,12,–
CCNC(=O)N(N=Cc1ccc(C(F)(F)F)cc1)C(=N)NN=Cc1ccc(C(F)(F)F)cc1 [CF3 / CF3 / C2 H5 / H],–,0 (No effect),9 (100%),0 (No effect),–,0 (No effect),–,–,–,–,–,–,–,–,–
CNC(=O)N(N=Cc1ccc(C(F)(F)F)cc1)C(=N)NN=Cc1ccc(C(F)(F)F)cc1 [CF3 / CF3 / CH3 / H],1 (11-25%),9 (100%),9 (100%),8 (86-99%),–,6 (66-75%),0 (No effect),–,–,–,–,–,5,–,–
N=C(NN=Cc1ccc(C(F)(F)F)cc1)N(N=Cc1ccc(C(F)(F)F)cc1)C(=O)OCc1ccccc1 [CF3 / CF3 / drawing 59],–,0 (No effect),9 (100%),0 (No effect),–,0 (No effect),–,–,–,–,–,–,–,–,–
N=C(NN=Cc1ccc(C(F)(F)F)cc1)NN=Cc1ccc(C(F)(F)F)cc1 [CF3 / HCl],0 (No effect),9 (100%),9 (100%),9 (100%),0 (No effect),5 (56-65%),0 (No effect),0 (No effect),R,–,R,–,–,–,–
N=C(NN=Cc1ccc(OC(F)(F)F)cc1)NN=Cc1ccc(OC(F)(F)F)cc1 [CF3 O / HCl],0 (No effect),9 (100%),9 (100%),9 (100%),–,–,–,–,–,–,–,–,–,–,–
N=C(NN=Cc1ccc(Cl)cc1)NN=Cc1ccc(Cl)cc1 [Cl / Base],0 (No effect),0 (No effect),9 (100%),5 (56-65%),–,0 (No effect),–,–,–,–,–,–,–,–,–
N=C(NN=Cc1ccc(Cl)cc1)NN=Cc1ccc(Br)cc1 [Cl / Br / HCl],–,2 (26-35%),9 (100%),0 (No effect),–,0 (No effect),–,–,–,–,–,–,–,–,R
CN(C)C(=O)N(N=Cc1ccc(Cl)cc1)C(=N)NN=Cc1ccc(Cl)cc1 [Cl / Cl / CH3 / CH3],–,0 (No effect),9 (100%),0 (No effect),0 (No effect),0 (No effect),–,–,–,–,–,–,–,–,–
CC(C)OC(=O)N(N=Cc1ccc(OC(F)(F)C(F)Cl)cc1)C(=N)NN=Cc1ccc(OC(F)(F)C(F)Cl)cc1 (centres unmarked) [drawing 50 / drawing 51 / -i-C3 H7],0 (No effect),9 (100%),9 (100%),–,–,0 (No effect),–,–,–,–,–,R,–,–,–
CC(C)OC(=O)N(N=Cc1ccc2c(c1)OC(F)C(F)(F)O2)C(=N)NN=Cc1ccc2c(c1)OC(F)C(F)(F)O2 (centres unmarked) [drawing 52 / drawing 53 / -i-C3 H7],0 (No effect),5 (56-65%),8 (86-99%),–,0 (No effect),0 (No effect),–,–,–,–,–,R,–,–,–
N=C(NN=Cc1ccc(OC(F)(F)C(F)Cl)cc1)N(N=Cc1ccc(OC(F)(F)C(F)Cl)cc1)C(=O)OCCCl (centres unmarked) [drawing 57 / drawing 58 / ClCH2 CH2],–,9 (100%),9 (100%),–,–,0 (No effect),–,–,–,–,–,R,–,–,–
